A word on the chromatographic logD: it is a lipophilicity value derived from retention on a column. Low values mean lower lipophilicity, high ones higher lipophilicity.

Here are results for twelve compounds from patent US20240116985A1, “STAPLED PEPTIDES AND METHODS THEREOF” (priority 2020, published 2024).

In data set [1] the target is T1, full-length beta-Catenin (Uniprot ID P35222) (Homo sapiens, UniProt P35222).
T1 construct: 10 nM full-length beta-Catenin (Uniprot ID P35222)
T1 sequence (P35222 1-781): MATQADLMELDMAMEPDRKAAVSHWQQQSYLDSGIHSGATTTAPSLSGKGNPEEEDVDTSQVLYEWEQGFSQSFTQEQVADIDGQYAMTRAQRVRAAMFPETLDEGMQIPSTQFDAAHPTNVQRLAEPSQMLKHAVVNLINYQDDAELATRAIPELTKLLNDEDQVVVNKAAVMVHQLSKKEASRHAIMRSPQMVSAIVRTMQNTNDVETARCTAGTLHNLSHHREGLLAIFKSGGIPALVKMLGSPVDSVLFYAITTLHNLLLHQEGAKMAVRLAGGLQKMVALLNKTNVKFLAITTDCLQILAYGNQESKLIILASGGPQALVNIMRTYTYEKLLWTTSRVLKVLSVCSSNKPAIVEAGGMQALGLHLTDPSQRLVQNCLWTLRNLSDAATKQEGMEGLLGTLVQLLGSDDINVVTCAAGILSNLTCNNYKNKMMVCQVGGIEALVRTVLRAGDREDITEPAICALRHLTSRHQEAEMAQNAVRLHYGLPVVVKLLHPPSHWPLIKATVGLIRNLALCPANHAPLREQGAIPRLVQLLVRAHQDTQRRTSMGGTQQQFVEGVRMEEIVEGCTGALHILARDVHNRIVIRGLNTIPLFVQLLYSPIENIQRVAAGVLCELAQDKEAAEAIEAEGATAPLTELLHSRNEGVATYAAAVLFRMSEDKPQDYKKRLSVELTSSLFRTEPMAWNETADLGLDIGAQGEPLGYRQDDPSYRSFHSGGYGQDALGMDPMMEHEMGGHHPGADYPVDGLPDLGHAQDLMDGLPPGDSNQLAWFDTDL
Description: Fluorescence polarization IC50 (beta-catenin / 5FAM-TCF4 10-53 competition). In kind it is binding.

A short description of data set [2]: CHI Log D procedure. In kind it is physicochemical. The conditions noted are these: for chromatographic logD: pH 7.4, CHI Log D; for CHI Log D: pH 7.4.
Setting [3] is: fluorescence polarization, beta-catenin, read-out: FP EC50.

Read-outs that look alike come from different tables or passages of the source.

As for `CC(=O)N1CCC[C@]12CC=CCCCC1(CCCC=CCCCOC(=O)N3CC[C@@](C(=O)N[C@@H](Cc4ccsc4)C(=O)N[C@@H](Cc4csc5ccccc45)C(=O)N[C@@H](CCC(N)=O)C(N)=O)(C3)NC(=O)[C@H](Cc3ccccc3)NC(=O)[C@H](Cc3ccccc3)NC(=O)[C@H](C)NC(=O)[C@H](C)NC(=O)[C@H](Cc3ccccc3C(=O)O)NC(=O)[C@H](CC(=O)O)NC1=O)NC(=O)[C@H](CC(C)(C)C)NC(=O)[C@H](CC(=O)O)NC2=O` (stereo partly drawn) [I-853, Ac-PL3-Asp-Npg-B5-Asp-2COOHF-Ala-Ala-Phe-Phe-PyrS2-3Thi-BztA-Gln-NH2], the IC50 in data set [1] (read-out: beta-Catenin FP IC50) was 8 nM. Besides, the chromatographic logD in data set [2] was 2.52.

For `CC(=O)N1CCC[C@]12CC=CCCCC1(CCCC=CCCCOC(=O)N3CC[C@@](C(=O)N[C@@H](Cc4ccsc4)C(=O)N[C@@H](Cc4csc5ccccc45)C(=O)N[C@@H](CCC(N)=O)C(N)=O)(C3)NC(=O)[C@H](Cc3ccccc3)NC(=O)[C@H](Cc3ccccc3)NC(=O)[C@H](C)NC(=O)[C@H](C)NC(=O)[C@H](CC(N)=O)NC(=O)[C@H](CC(=O)O)NC1=O)NC(=O)[C@H](CC(C)(C)C)NC(=O)[C@H](CC(=O)O)NC2=O` (stereo partly drawn) [I-855, Ac-PL3-Asp-Npg-B5-Asp-Asn-Ala-Ala-Phe-Phe-PyrS2-3Thi-BztA-Gln-NH2], in data set [1] (read-out: beta-Catenin FP IC50), the IC50 was 22 nM. This compound also had a chromatographic logD in data set [2] of 2.54.

On to `CC(=O)N1CCC[C@]12CC=CCCCC1(CCCC=CCCCOC(=O)N3CC[C@@](C(=O)N[C@@H](Cc4ccsc4)C(=O)N[C@@H](Cc4csc5ccccc45)C(=O)N[C@@H](CCC(N)=O)C(=O)N[C@@H](CCCCNC(=O)CCc4cc(C(F)(F)F)cc(C(F)(F)F)c4)C(N)=O)(C3)NC(=O)[C@H](CC(N)=O)NC(=O)[C@H](Cc3ccccc3)NC(=O)[C@H](C)NC(=O)[C@H](C)NC(=O)[C@H](CC(=O)O)NC(=O)[C@H](CC(=O)O)NC1=O)NC(=O)[C@H](CC(C)(C)C)NC(=O)[C@H](CC(=O)O)NC2=O` (stereo partly drawn) [I-902, Ac-PL3-Asp-Npg-B5-Asp-Asp-Ala-Ala-Phe-Asn-PyrS2-3Thi-BztA-Gln-[35CF3PhPr]Lys-NH2], for which the IC50 in data set [1] (read-out: beta-Catenin FP IC50) was 104 nM. In data set [2], this compound yielded a chromatographic logD of 2.69.

Consider `CC(=O)N1CCC[C@]12CC=CCCCC1(CCCC=CCCCCCC[C@@](C)(C(=O)N[C@@H](Cc3ccccc3Cl)C(=O)N[C@@H](Cc3csc4ccccc34)C(=O)N[C@@H](CCC(N)=O)C(N)=O)NC(=O)[C@H](Cc3ccccc3)NC(=O)[C@H](Cc3ccccc3)NC(=O)[C@H](C)NC(=O)[C@H](C)NC(=O)[C@H](CN(CC(=O)O)CC(F)(F)F)NC(=O)[C@H](CC(=O)O)NC1=O)NC(=O)[C@H](CC(C)(C)C)NC(=O)[C@H](CC(=O)O)NC2=O` (stereo partly drawn) [I-931, Ac-PL3-Asp-Npg-B5-Asp-TfeGA-Ala-Ala-Phe-Phe-S8-2C1F-BztA-Gln-NH2], for which, in data set [1] (read-out: beta-Catenin FP IC50), the IC50 was determined as 221 nM. Further, in data set [2], the chromatographic logD stood at 3.36.

`CC(=O)N1CCC[C@]12CC=CCCCC1(CCCC=CCCCCCC[C@@](C)(C(=O)N[C@@H](Cc3ccccc3C(F)(F)F)C(=O)N[C@@H](Cc3csc4ccccc34)C(=O)N[C@@H](CCC(N)=O)C(N)=O)NC(=O)[C@H](CC(N)=O)NC(=O)[C@H](Cc3ccccc3)NC(=O)[C@H](C)NC(=O)[C@H](C)NC(=O)[C@H](CN(CC(=O)O)CC(F)(F)F)NC(=O)[C@H](CC(=O)O)NC1=O)NC(=O)[C@H](CC(C)(C)C)NC(=O)[C@H](CC(=O)O)NC2=O` (stereo partly drawn) [I-934, Ac-PL3-Asp-Npg-B5-Asp-TfeGA-Ala-Ala-Phe-Asn-S8-2F3MeF-BztA-Gln-NH2]: the IC50 in data set [1] (read-out: beta-Catenin FP IC50) is 69 nM. This compound also yielded a chromatographic logD in data set [2] of 2.82.

As to `C#CCOCCOCCOCCOCCC(=O)NCCCC[C@H](NC(=O)[C@H](CCC(N)=O)NC(=O)[C@H](Cc1csc2ccccc12)NC(=O)[C@H](Cc1ccsc1)NC(=O)[C@]12CCN(C1)C(=O)OCCCC=CCCCC1(CCCC=CC[C@]3(CCCN3C(C)=O)C(=O)N[C@@H](CC(=O)O)C(=O)N[C@@H](CC(C)(C)C)C(=O)N1)C(=O)N[C@@H](CC(=O)O)C(=O)N[C@@H](CC(=O)O)C(=O)N[C@@H](C)C(=O)N[C@@H](C)C(=O)N[C@@H](Cc1ccccc1)C(=O)N[C@@H](CC(N)=O)C(=O)N2)C(N)=O` (stereo partly drawn) [I-938, Ac-PL3-Asp-Npg-B5-Asp-Asp-Ala-Ala-Phe-Asn-PyrS2-3Thi-BztA-Gln-[PropynPEG4]Lys-NH2], the IC50 in data set [1] (read-out: beta-Catenin FP IC50) turned out to be 9 nM. The chromatographic logD in data set [2] stood at 2.16.

Take `CC(=O)N1CCC[C@]12CC=CCCCC1(CCCC=CCCCOC(=O)N3CC[C@@](C(=O)N[C@@H](Cc4ccsc4)C(=O)N[C@@H](Cc4csc5ccccc45)C(=O)N[C@@H](C)C(N)=O)(C3)NC(=O)[C@H](CC(N)=O)NC(=O)[C@H](Cc3ccccc3)NC(=O)[C@H](C)NC(=O)[C@H](C)NC(=O)[C@H](CN(CC(=O)O)CC(F)(F)F)NC(=O)[C@H](CC(=O)O)NC1=O)NC(=O)[C@H](CC(C)(C)C)NC(=O)[C@H](CC(=O)O)NC2=O` (stereo partly drawn) [I-944, Ac-PL3-Asp-Npg-B5-Asp-TfeGA-Ala-Ala-Phe-Asn-PyrS2-3Thi-BztA-Ala-NH2]: the IC50 in data set [1] (setting [3]) and in data set [1] (read-out: beta-Catenin FP IC50) was 761 nM each time. Besides, the “CHI Log D” value in data set [2] was 1.982.

On to `CC(=O)N1CCC[C@]12CC=CCCCC1(CCCC=CCCCOC(=O)N3CC[C@@](C(=O)N[C@@H](Cc4ccsc4)C(=O)N[C@@H](Cc4csc5ccccc45)C(=O)N[C@@H](C)C(N)=O)(C3)NC(=O)[C@H](CC(N)=O)NC(=O)[C@H](Cc3ccccc3)NC(=O)[C@H](C)NC(=O)[C@H](C)NC(=O)[C@H](CN(CC(=O)O)CC(F)(F)F)NC(=O)[C@H](CC(=O)O)NC1=O)NC(=O)[C@H](CC(C)(C)C)NC(=O)[C@H](CC(=O)O)NC2=O` (stereo partly drawn) [I-945, Ac-PL3-Asp-Npg-B5-Asp-TfeGA-Ala-Ala-Phe-Asn-PyrS2-3Thi-BztA-Ala-NH2], for which the IC50 in data set [1] (setting [3]) and in data set [1] (read-out: beta-Catenin FP IC50) was 1080 nM in each case. Also, the “CHI Log D” value in data set [2] was found to be 2.104.

Regarding `CC(=O)N1CCC[C@]12CC=CCCCC1(CCCC=CCCCOC(=O)N3CC[C@@](C(=O)N[C@@H](Cc4ccsc4)C(=O)N[C@@H](Cc4csc5ccccc45)C(=O)N[C@@H](Cc4ccc(O)cc4)C(N)=O)(C3)NC(=O)[C@H](CC(N)=O)NC(=O)[C@H](Cc3ccccc3)NC(=O)[C@H](C)NC(=O)[C@H](C)NC(=O)[C@H](CN(CC(=O)O)CC(F)(F)F)NC(=O)[C@H](CC(=O)O)NC1=O)NC(=O)[C@H](CC(C)(C)C)NC(=O)[C@H](CC(=O)O)NC2=O` (stereo partly drawn) [I-952, Ac-PL3-Asp-Npg-B5-Asp-TfeGA-Ala-Ala-Phe-Asn-PyrS2-3Thi-BztA-Tyr-NH2], the IC50 in data set [1] (setting [3]) and in data set [1] (read-out: beta-Catenin FP IC50) was 1210 nM throughout. In data set [2], the “CHI Log D” value is 1.975.

In the case of `CC(=O)N1CCC[C@]12CC=CCCCC1(CCCC=CCCCOC(=O)N3CC[C@@](C(=O)N[C@@H](Cc4ccsc4)C(=O)N[C@@H](Cc4csc5ccccc45)C(=O)N[C@@H](CO)C(N)=O)(C3)NC(=O)[C@H](Cc3ccccc3)NC(=O)[C@H](Cc3ccccc3)NC(=O)[C@H](C)NC(=O)[C@H](C)NC(=O)[C@H](CN(CC(=O)O)CC(F)(F)F)NC(=O)[C@H](CC(=O)O)NC1=O)NC(=O)[C@H](CC(C)(C)C)NC(=O)[C@H](CC(=O)O)NC2=O` (stereo partly drawn) [I-962, Ac-PL3-Asp-Npg-B5-Asp-TfeGA-Ala-Ala-Phe-Phe-PyrS2-3Thi-BztA-Ser-NH2], the IC50 in data set [1] (setting [3]) and in data set [1] (read-out: beta-Catenin FP IC50) was 407 nM in each case. For the same compound, in data set [2], the “CHI Log D” value amounted to 2.046.

As to `CC(=O)N1CCC[C@]12CC=CCCCC1(CCCC=CCCCOC(=O)N3CC[C@@](C(=O)N[C@@H](Cc4ccsc4)C(=O)N[C@@H](Cc4csc5ccccc45)C(=O)N[C@@H](CO)C(N)=O)(C3)NC(=O)[C@H](Cc3ccccc3)NC(=O)[C@H](Cc3ccccc3)NC(=O)[C@H](C)NC(=O)[C@H](C)NC(=O)[C@H](CN(CC(=O)O)CC(F)(F)F)NC(=O)[C@H](CC(=O)O)NC1=O)NC(=O)[C@H](CC(C)(C)C)NC(=O)[C@H](CC(=O)O)NC2=O` (stereo partly drawn) [I-963, Ac-PL3-Asp-Npg-B5-Asp-TfeGA-Ala-Ala-Phe-Phe-PyrS2-3Thi-BztA-Ser-NH2], the IC50 in data set [1] (setting [3]) and in data set [1] (read-out: beta-Catenin FP IC50) was 402 nM throughout. Besides, in data set [2], the “CHI Log D” value was determined as 2.117.

As for `CCN(CC(=O)O)C[C@@H]1NC(=O)[C@H](CC(=O)O)NC(=O)C2(CCCC=CCCCOC(=O)N3CC[C@@](C(=O)N[C@@H](Cc4ccsc4)C(=O)N[C@@H](Cc4csc5ccccc45)C(=O)N[C@@H](CCC(N)=O)C(N)=O)(C3)NC(=O)[C@H](Cc3ccccc3)NC(=O)[C@H](Cc3ccccc3)NC(=O)[C@H](C)NC(=O)[C@H](C)NC1=O)CCCC=CC[C@]1(CCCN1C(C)=O)C(=O)N[C@@H](CC(=O)O)C(=O)N[C@@H](CC(C)(C)C)C(=O)N2` (stereo partly drawn) [I-970, Ac-PL3-Asp-Npg-B5-Asp-EtGA-Ala-Ala-Phe-Phe-PyrS2-3Thi-BztA-Gln-NH2], the IC50 in data set [1] (setting [3]) and in data set [1] (read-out: beta-Catenin FP IC50) was 1360 nM throughout. The “CHI Log D” value in data set [2] is on record as 1.853.
